Measured values taken from US6914045B2, “Glycopeptide antibiotics” (Wyeth Holdings Corporation, priority 2001, dated 2005).
Converted amounts (≈) assume the structure as drawn.

Experiments:
Test in all cases: in vitro antibacterial evaluation, MIC by broth dilution
Type in all cases: cell-based
[1] = system: Enterococcus sp.; details: broth dilution, 18 hours at 35° C.; for MIC Enterococcus faecalis (ATCC 29212): strain ATCC 29212; for MIC Enterococcus faecalis (GC 2242): strain GC 2242; for MIC Enterococcus faecium (GC 2243): strain GC 2243; for MIC Enterococcus faecalis (GC 2691): strain GC 2691; for MIC Enterococcus faecalis (GC 3059): strain GC 3059; for MIC Enterococcus faecalis (GC 4552): strain GC 4552; for MIC Enterococcus faecalis (GC 4553): strain GC 4553; for MIC Enterococcus faecalis (GC 4554): strain GC 4554; for MIC Enterococcus faecium (GC 4556): strain GC 4556; for MIC Enterococcus faecium (GC 4557): strain GC 4557; for MIC Enterococcus avium (GC 4558): strain GC 4558; for MIC Enterococcus faecalis (GC 6189): strain GC 6189
Summary of the method: (§1)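 Step 1: dilute antibiotic across 64-0.06 μg/mL in Muller-Hinton II […]. Step 2: inoculate at 5×10^5 CFU/mL.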

[2] = system: Escherichia coli
Summary of the method: as §1

[3] = system: Staphylococcus sp.; details: broth dilution, 18 hours at 35° C.; for MIC Staphylococcus aureus (GC 1131): strain GC 1131
Summary of the method: as §1

[4] = system: Streptococcus sp.; details: broth dilution, 18 hours at 35° C.; for MIC Streptococcus pneumoniae (ATCC 6301): strain ATCC 6301; for MIC Streptococcus pneumoniae (GC 1894): strain GC 1894; for MIC Streptococcus pyogenes (GC 4563): strain GC 4563; for MIC Streptococcus agalactiae (GC 4564): strain GC 4564; for MIC Streptococcus pneumoniae (GC 4565): strain GC 4565
Summary of the method: as §1

Compound: CC(c1ccccc1)C1NC(=O)CNC(=O)C(CO)NC(=O)C(C(O)C2CNC(=N)N2C2OC(CO)C(O)C(O)C2O)NC(=O)C(C(O)C2CNC(=N)N2)NC(=O)C(Cc2ccc(OC3OC(CO)C(OC4OC5COC(c6ccc(C(=O)c7ccccc7)cc6)OC5C(O)C4O)C(O)C3O)cc2)NC1=O (centres unmarked) [Example 173]
- MIC Enterococcus faecalis (ATCC 29212) ([1]; inoculum 5×10^5 CFU/mL): 1 µg/mL (≈ 0.672 µM)
- MIC Enterococcus faecalis (GC 2242) ([1]; inoculum 5×10^5 CFU/mL): 2 µg/mL (≈ 1.34 µM)
- MIC Enterococcus faecium (GC 2243) ([1]; inoculum 5×10^5 CFU/mL): 2 µg/mL (≈ 1.34 µM)
- MIC Enterococcus faecalis (GC 2691) ([1]; inoculum 5×10^5 CFU/mL): 2 µg/mL (≈ 1.34 µM)
- MIC Enterococcus faecalis (GC 3059) ([1]; inoculum 5×10^5 CFU/mL): 2 µg/mL (≈ 1.34 µM)
- MIC Enterococcus faecalis (GC 4552) ([1]; inoculum 5×10^5 CFU/mL): 2 µg/mL (≈ 1.34 µM)
- MIC Enterococcus faecalis (GC 4553) ([1]; inoculum 5×10^5 CFU/mL): 2 µg/mL (≈ 1.34 µM)
- MIC Enterococcus faecalis (GC 4554) ([1]; inoculum 5×10^5 CFU/mL): 2 µg/mL (≈ 1.34 µM)
- MIC Enterococcus faecium (GC 4556) ([1]; inoculum 5×10^5 CFU/mL): 1 µg/mL (≈ 0.672 µM)
- MIC Enterococcus faecium (GC 4557) ([1]; inoculum 5×10^5 CFU/mL): 2 µg/mL (≈ 1.34 µM)
- MIC Enterococcus avium (GC 4558) ([1]; inoculum 5×10^5 CFU/mL): 1 µg/mL (≈ 0.672 µM)
- MIC Enterococcus faecalis (GC 6189) ([1]; inoculum 5×10^5 CFU/mL): 1 µg/mL (≈ 0.672 µM)
- MIC Enterococcus faecalis (ATCC 29212) [1]: 1 µg/mL (≈ 0.672 µM)
- MIC Enterococcus faecalis (GC 2242) [1]: 2 µg/mL (≈ 1.34 µM)
- MIC Enterococcus faecium (GC 2243) [1]: 2 µg/mL (≈ 1.34 µM)
- MIC Enterococcus faecalis (GC 2691) [1]: 2 µg/mL (≈ 1.34 µM)
- MIC Enterococcus faecalis (GC 3059) [1]: 2 µg/mL (≈ 1.34 µM)
- MIC Enterococcus faecalis (GC 4552) [1]: 2 µg/mL (≈ 1.34 µM)
- MIC Enterococcus faecalis (GC 4553) [1]: 2 µg/mL (≈ 1.34 µM)
- MIC Enterococcus faecalis (GC 4554) [1]: 2 µg/mL (≈ 1.34 µM)
- MIC Enterococcus faecium (GC 4556) [1]: 1 µg/mL (≈ 0.672 µM)
- MIC Enterococcus faecium (GC 4557) [1]: 2 µg/mL (≈ 1.34 µM)
- MIC Enterococcus avium (GC 4558) [1]: 1 µg/mL (≈ 0.672 µM)
- MIC Enterococcus faecalis (GC 6189) [1]: 1 µg/mL (≈ 0.672 µM)
- MIC Escherichia coli (ATCC 25922) ([2]; strain ATCC 25922, 18 hours at 35° C.): 32 µg/mL (≈ 21.5 µM)
- MIC Escherichia coli (GC 4559) ([2]; strain GC 4559, 18 hours at 35° C.): 16 µg/mL (≈ 10.8 µM)
- MIC Escherichia coli (GC 4560) ([2]; strain GC 4560, 18 hours at 35° C.): 0.5 µg/mL (≈ 0.336 µM)
- MIC Staphylococcus aureus (GC 1131) ([3]; inoculum 5×10^5 CFU/mL): 2 µg/mL (≈ 1.34 µM)
- MIC Staphylococcus aureus (ATCC 29213) ([3]; strain ATCC 29213): 1 µg/mL (≈ 0.672 µM)
- MIC Staphylococcus aureus (GC 1131) [3]: 2 µg/mL (≈ 1.34 µM)
- MIC Staphylococcus aureus (GC 3051) ([3]; strain GC 3051): 0.5 µg/mL (≈ 0.336 µM)
- MIC Staphylococcus aureus (GC 3053) ([3]; strain GC 3053): 1 µg/mL (≈ 0.672 µM)
- MIC Staphylococcus aureus (GC 4541) ([3]; strain GC 4541): 0.5 µg/mL (≈ 0.336 µM)
- MIC Staphylococcus aureus (GC 4542) ([3]; strain GC 4542): 0.5 µg/mL (≈ 0.336 µM)
- MIC Staphylococcus aureus-SMITH (GC 4543) ([3]; strain GC 4543): 0.5 µg/mL (≈ 0.336 µM)
- MIC Staphylococcus aureus (GC 4544) ([3]; strain GC 4544): 2 µg/mL (≈ 1.34 µM)
- MIC Staphylococcus aureus (GC 4545) ([3]; strain GC 4545): 2 µg/mL (≈ 1.34 µM)
- MIC Staphylococcus haemolyticus (GC 4546) ([3]; strain GC 4546): 1 µg/mL (≈ 0.672 µM)
- MIC Coagulase Negative Staphylococcus (GC 4547) ([3]; strain GC 4547): 2 µg/mL (≈ 1.34 µM)
- MIC Coagulase Negative Staphylococcus (GC 4548) ([3]; strain GC 4548): 0.5 µg/mL (≈ 0.336 µM)
- MIC Coagulase Negative Staphylococcus (GC 4549) ([3]; strain GC 4549): 0.25 µg/mL (≈ 0.168 µM)
- MIC Coagulase Negative Staphylococcus (GC 4551) ([3]; strain GC 4551): 0.5 µg/mL (≈ 0.336 µM)
- MIC Coagulase Negative Staphylococcus (GC 6257) ([3]; strain GC 6257): 0.5 µg/mL (≈ 0.336 µM)
- MIC Streptococcus pneumoniae (ATCC 6301) ([4]; inoculum 5×10^5 CFU/mL): <0.12 µg/mL
- MIC Streptococcus pneumoniae (GC 1894) ([4]; inoculum 5×10^5 CFU/mL): <0.12 µg/mL
- MIC Streptococcus pyogenes (GC 4563) ([4]; inoculum 5×10^5 CFU/mL): <0.12 µg/mL
- MIC Streptococcus agalactiae (GC 4564) ([4]; inoculum 5×10^5 CFU/mL): <0.12 µg/mL
- MIC Streptococcus pneumoniae (GC 4565) ([4]; inoculum 5×10^5 CFU/mL): <0.12 µg/mL
- MIC Streptococcus pneumoniae (ATCC 6301) [4]: <0.12 µg/mL
- MIC Streptococcus pneumoniae (GC 1894) [4]: <0.12 µg/mL
- MIC Streptococcus pyogenes (GC 4563) [4]: <0.12 µg/mL
- MIC Streptococcus agalactiae (GC 4564) [4]: <0.12 µg/mL
- MIC Streptococcus pneumoniae (GC 4565) [4]: <0.12 µg/mL
